Experimental data from paper PMC13131050, “Nicotinamide-Loaded Peptoid Nanotubes for Energy Regeneration in Acute Brain Injury” (ACS Nano, 2026).
Counter-ions that a name gives are not always drawn.

Assays:
BV-2 cells [1] = assay: Inhibition of DNS-PNT uptake by endocytic pathway inhibitors in BV-2 cells; assay type: cell-based, murine; conditions: inhibitor 10 μM, 1 h pre-incubation, DNS-PNT 20 μg/mL 24 h with or without inhibitor; confocal imaging
Experimental: BV-2 cells were seeded at a density of 10,000 cells per well in a 96-well plate and cultured for 2 days. […] Following uptake, the medium containing PNTs was collected, and the cells were further incubated in fresh CCM for 1 or 24 h to allow exocytosis. The supernatant was subsequently collected, and the cells were washed three times with PBS. […] Fluorescence intensity was measured directly at 335/518 nm excitation and emission using a Synergy H1 multimodal microplate reader. For inhibition studies, BV-2 cells were seeded in 35 mm culture dishes (VWR) at a density of 300,000 cells and cultured for 2 days. […] The inhibitors used were chlorpromazine hydrochloride (Sigma), cytochalasin D (Sigma), amiloride hydrochloride hydrate (Sigma), sucrose (Thermo Fisher Scientific), and genistein (Sigma). − After treatment, cells were incubated with LysoTracker (75 nM, Invitrogen) for 1 h and fixed with 10% formalin phosphate buffer (Thermo Fisher Scientific) for 10 min. Subsequently, cells were stained with Tomato Lectin (1 μg/mL, 1 h) and ToPro-3 (0.1 μg/mL, 15 min; Thermo Fisher Scientific) in PBS at room temperature. Confocal images were acquired using a Nikon microscope (40× and […] oil immersion objectives, 1.30 numerical aperture; Nikon Corporation, Minato City, Tokyo, Japan).

BV-2 cells [2] = assay: MTT cell viability / cytotoxicity in healthy BV-2 cells; assay type: cell-based, murine; conditions: 3 doses equivalent to NAM-PNT, 24 h (Figure S11)
Experimental: Murine microglia BV-2 cells were purchased from ATCC (CRL-2469) and cultured based on previous literature. Briefly, BV-2 cells were cultured in cell culture media (CCM, high-glucose, phenol red-free DMEM supplemented with 10% FBS, 1% glutamine, and 1% 100 U/mL penicillin–streptomycin) at 37 °C under a 5% CO2 atmosphere. The passage number of BV-2 cells used in this study was between 7 and 15. At 70–80% confluency, BV-2 cells were passaged and seeded in a 96-well plate for further experiments. […] Cell cytotoxicity was identified by the standard 3-(4,5-dimethylthiazol-2-yl)-2,5-diphenyltetrazolium bromide (MTT) assay (Thermo Fisher Scientific) on healthy cells. After 24 h, cells were incubated with fresh media containing 10 μL of 12 mM MTT solution in PBS for 4 h. Following the addition of 50 μL of […] (DMSO), the absorbance was recorded by a Synergy H1 multimodal microplate reader at a wavelength of 540 nm. Cell viability was measured using the alamarBlue (aBlue) Cell Viability Reagent (Thermo Fisher Scientific). […] The plate was measured directly at 560/590 nm excitation/emission fluorescence on a Synergy H1 multimodal microplate reader. Readings were normalized to those of healthy controls. […] Data were collected using a Synergy H1 multimodal microplate reader. For the OGD studies, readings were normalized to the average value of the OGD controls.

BV-2 cells [3] = assay: Intracellular ATP level (luminescent ATP detection kit) in BV-2 cells; assay type: cell-based, murine
Experimental: We prepared OGD media as previously described. , OGD media consisted of 120 mM sodium chloride (NaCl, MilliporeSigma), 5 mM potassium chloride (KCl, MilliporeSigma), 2 mM calcium chloride (CaCl2, MilliporeSigma), 1.25 mM monosodium phosphate anhydrous (NaH2PO4, MilliporeSigma), 2 mM magnesium sulfate (MgSO4, MilliporeSigma), 25 mM sodium bicarbonate (NaHCO3, MilliporeSigma), and 20 mM HEPES in DI water. The OGD medium was sterile-filtered (0.2 μm), titrated to pH 7.4 with 1 M hydrochloric acid (Thermo Fisher Scientific) or 1 M sodium hydroxide (Thermo Fisher Scientific), bubbled with nitrogen gas (Praxair, Danbury, CT, USA) for at least 10 min, and prewarmed to 37 °C prior to use. […] Following the addition of 50 μL of […] (DMSO), the absorbance was recorded by a Synergy H1 multimodal microplate reader at a wavelength of 540 nm. Cell viability was measured using the alamarBlue (aBlue) Cell Viability Reagent (Thermo Fisher Scientific). […] The plate was measured directly at 560/590 nm excitation/emission fluorescence on a Synergy H1 multimodal microplate reader. Readings were normalized to those of healthy controls. […] Data were collected using a Synergy H1 multimodal microplate reader. For the OGD studies, readings were normalized to the average value of the OGD controls.

[4] = AFM dimensions (height, length) of peptoid nanotubes; assay type: physicochemical; conditions: nanotubes assembled from the named peptoid; ex-situ AFM on mica
Experimental: The lengths of PNTs can be adjusted through sonication.
PNTs were prepared using the slow evaporation method to self-assemble the peptoids. Typically, 1 μmol of peptoid was treated with 2 μL of trifluoroacetic acid (TFA) and dried under a flow of N2. Subsequently, 100 μL of acetonitrile was added, followed by the addition of 0.5 M NaOH. Deionized water was then added to bring the total volume to 200 μL. The samples were left at 4 °C for slow evaporation until a gel-like solution was obtained. Ex situ Atomic Force Microscopy (AFM) analysis was conducted using a Bruker MultiMode 8 in ScanAsyst mode at room temperature. For sample preparation, 1.5 μL of the self-assembled peptoid was diluted 40 times with deionized water and deposited on a mica substrate. After 5 min, Whatman filter paper was used to remove the solution, and then the dried mica substrate was further dried under N2 flow. The AFM probe consisted of silicon tips on silicon cantilevers (NCHV probes, k = 42 N/m, tip radius). Scanning electron microscopy (SEM) images were captured from the samples deposited on a silicon wafer using the Apreo2S scanning electron microscope by Thermo Fisher. The imaging process employed an ETD detector, an excitation voltage of 2 kV, a current of 0.2 nA, and a working distance of around 8 mm. […] XRD data were analyzed using custom Python scripts.

OGD-exposed BV-2 cells = assay: AlamarBlue cell viability / metabolic activity in OGD-exposed BV-2 cells; assay type: cell-based, murine; conditions: 10 min OGD, then treatment, normalized to OGD controls
Experimental: Murine microglia BV-2 cells were purchased from ATCC (CRL-2469) and cultured based on previous literature. Briefly, BV-2 cells were cultured in cell culture media (CCM, high-glucose, phenol red-free DMEM supplemented with 10% FBS, 1% glutamine, and 1% 100 U/mL penicillin–streptomycin) at 37 °C under a 5% CO2 atmosphere. The passage number of BV-2 cells used in this study was between 7 and 15. At 70–80% confluency, BV-2 cells were passaged and seeded in a 96-well plate for further experiments. […] Following the addition of 50 μL of […] (DMSO), the absorbance was recorded by a Synergy H1 multimodal microplate reader at a wavelength of 540 nm. Cell viability was measured using the alamarBlue (aBlue) Cell Viability Reagent (Thermo Fisher Scientific). […] The plate was measured directly at 560/590 nm excitation/emission fluorescence on a Synergy H1 multimodal microplate reader. Readings were normalized to those of healthy controls. […] Data were collected using a Synergy H1 multimodal microplate reader. For the OGD studies, readings were normalized to the average value of the OGD controls.

[5] = system: OGD-exposed OWH brain slices; assay: Propidium iodide cell death in OGD-exposed OWH brain slices; assay type: cell-based, rat; conditions: OGD-exposed P10 OWH slices, cortex and striatum, 24 h treatment, n = 7
Experimental: All treatments were applied topically.
After 24 h of treatment, slices were stained with 1 mL of 5 μg/mL PI (Thermo Fisher Scientific) in SCM for 45 min under standard culture conditions as previously described. , The staining solution was placed underneath the inset. Slices were washed twice for 3 min each with sterile 1× PBS at room temperature, followed by a 1 h wash with 37 °C SCM under culturing conditions, and then fixed with 10% formalin phosphate buffer (Thermo Fisher Scientific) for 1 hour. Following two final washes with room temperature 1× PBS, slices were stored covered at 4 °C until they were ready for use. Within 2 weeks, slices were stained for 15 min with 0.1 μg/mL DAPI (Thermo Fisher Scientific) in 1× PBS at room temperature. Slices were washed twice for 3 min each with 1× PBS prior to imaging. […] For each image, DAPI+ cell nuclei (total cells) and PI+ cell nuclei (dead cells) that were also DAPI+ were counted manually in ImageJ (NIH) after applying an Otsu threshold and fluorescence cutoff to aid in visualization. , The fluorescence cutoff was kept consistent across all images. The PI+/DAPI+ cell ratio was expressed as the percentage of dead cells in an individual image.

Compound: O=c1c(-c2ccc(O)cc2)coc2cc(O)cc(O)c12 [genistein]
- Effect of inhibitor on DNS-PNT internalization into BV-2 cells (BV-2 cells [1]): significantly suppressed PNT signals

Compound: OC[C@H]1O[C@@](CO)(O[C@H]2O[C@H](CO)[C@@H](O)[C@H](O)[C@H]2O)[C@@H](O)[C@@H]1O [sucrose]
- Effect of inhibitor on DNS-PNT internalization into BV-2 cells (BV-2 cells [1]): reduced PNT uptake

Compound: C=C1[C@@H](C)[C@H]2[C@H](Cc3ccccc3)NC(=O)[C@]23[C@H](OC(C)=O)/C=C/[C@@](C)(O)C(=O)[C@@H](C)C/C=C/[C@H]3[C@@H]1O [Cytochalasin D, cytochalasin D]
- Effect of inhibitor on DNS-PNT internalization into BV-2 cells (BV-2 cells [1]): significantly suppressed PNT signals

Compound: NC(=O)c1cccnc1 [free NAM, nicotinamide]
- Increase in cell viability with free drug (MTT) (BV-2 cells [2]): increase was not seen
- Improvement of intracellular ATP level after OGD energy depletion (BV-2 cells [3]; OGD-exposed BV-2 cells, free drug): did not
- Cellular ATP level in healthy cells (BV-2 cells [3]; healthy BV-2 cells, 24 h (Figure S16a)): limited increase compared to NAM-PNTs

Compound: N=C(N)NC(=O)c1nc(Cl)c(N)nc1N [amiloride, amiloride hydrochloride hydrate]
- Effect of inhibitor on DNS-PNT internalization into BV-2 cells (BV-2 cells [1]): minimal impact

Compound: Nbrpm6Nce3Nae3Nc2DNS [Pep-DNS]
- Height of nanotubes (ex-situ AFM) [4]: 7.78 ± 0.07 nm

Compound: NC(=O)C1=CN([C@@H]2O[C@H](COP(=O)(O)OP(=O)(O)OC[C@H]3O[C@@H](n4cnc5c(N)ncnc54)[C@H](O)[C@@H]3O)[C@@H](O)[C@H]2O)C=CC1 [free NAD+, β-nicotinamide adenine dinucleotide]
- Increase in cell viability with free drug (MTT) (BV-2 cells [2]): increase was not seen
- Metabolic activity / cell viability (AlamarBlue) versus OGD control (OGD-exposed BV-2 cells): no effect
- Cell death (percentage of PI+ cells) [5]: did not improve cell viability

Compound: CN(C)CCCN1c2ccccc2Sc2ccc(Cl)cc21 [chlorpromazine, chlorpromazine hydrochloride]
- Effect of inhibitor on DNS-PNT internalization into BV-2 cells (BV-2 cells [1]): minimal impact
